Test results as given in article PMC5738440, “Identification and characterization of the structure–activity relationships involved in UGT1A1 inhibition by anthraquinone and dianthrone constituents of Polygonum multiflorum” (Scientific Reports, 2017).
Where two headings read alike, the source gives them in different places.

Tests used:
UGT1A1 [1] = target: T1, UGT1A1 (Rattus norvegicus, UniProt Q64550); experiment: UGT1A1 inhibition: bilirubin glucuronidation in rat liver microsomes (RLM), enzyme inhibition kinetics; conditions: for Mode of inhibition: Lineweaver-Burk and Dixon plots
T1 sequence (Q64550 30-535): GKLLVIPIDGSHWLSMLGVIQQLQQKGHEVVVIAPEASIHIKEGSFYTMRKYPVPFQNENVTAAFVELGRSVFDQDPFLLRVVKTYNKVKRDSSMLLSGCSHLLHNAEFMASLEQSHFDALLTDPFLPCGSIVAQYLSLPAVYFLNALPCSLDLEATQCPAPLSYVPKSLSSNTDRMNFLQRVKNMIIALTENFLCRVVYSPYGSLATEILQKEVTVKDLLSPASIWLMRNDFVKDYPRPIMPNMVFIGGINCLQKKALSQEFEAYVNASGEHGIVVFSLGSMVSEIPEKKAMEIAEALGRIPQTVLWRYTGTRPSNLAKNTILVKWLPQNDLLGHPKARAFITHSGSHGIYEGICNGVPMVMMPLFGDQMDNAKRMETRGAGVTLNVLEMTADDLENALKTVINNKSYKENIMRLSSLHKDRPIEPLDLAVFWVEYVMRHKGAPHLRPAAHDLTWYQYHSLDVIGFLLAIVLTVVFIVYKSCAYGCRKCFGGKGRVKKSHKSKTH
Procedure: UGT1A1 activity assays were conducted at 37 °C in a shaking water bath[41]. Incubation mixtures (final volume, 0.2 mL) contained 0.5 mg/mL RLM, 0.1 M Tris-HCl (pH 7.4), 5 mM MgCl2, 5 mM D-saccharic acid 1,4-lactone, 3.5 mM UDPGA, and 50 mg/g protein alamethicin. Bilirubin (as a UGT1A1 substrate) and the test samples were dissolved in 100% dimethylsulfoxide (DMSO) immediately before being added to the incubation mixtures. […] The reaction was initiated by adding UDPGA after a 5-min pre-incubation at 37 °C; it was terminated after 10 min by adding 0.6 mL of ice-cold methanol: acetonitrile (1:2) containing 200 mM ascorbic acid. Proteins were precipitated by centrifugation at 13,000 × g for 30 min at 4 °C prior, and the supernatants were analyzed by UPLC.The assays were done in triplicates respectively.
Bilirubin glucuronidation was evaluated in the presence of various concentrations of bilirubin and potential inhibitors, as described above. Samples were analyzed in triplicate to determine their inhibition constants (Ki). For assays with inhibitors, the bilirubin concentration was 0.12 to 1.37 μM.
The inhibition kinetic type and parameters were determined by fitting the reaction velocities of different concentrations of test components (inhibitors) and bilirubin (substrate). Lineweaver–Burk and Dixon fitting equations were employed to determine the inhibition type, and the second plot (drawn using the slope of lines in the Lineweaver–Burk plot versus inhibitor concentrations) was used to calculate the Ki values. The results were analyzed using GraphPad Prism 5 software (GraphPad Inc., San Diego, CA, USA)[48]. […] The goodness-of-fit of the inhibition models was estimated using the F statistic, R^2 value, parameter standard error estimates, and 95% confidence intervals.

rUGT1A1 = rUGT1A1 system, competitive; cited from earlier work
UGT1A1 [2] = conditions: HLM system, competitive; cited from earlier work
UGT1A1 [3] = target: T1, UGT1A1; conditions: RLM system, competitive; cited from earlier work
[4] = Ki value, bilirubin substrate, extract concentration based on emodin content

| Compound | Ki (UGT1A1 [1]; [4]) [µM] | Mode of inhibition (UGT1A1 [1]) | Ki (rUGT1A1) [µM] | Ki (UGT1A1 [2]) [µM] | Ki (UGT1A1 [3]) [µM] | Ki at 10 min (UGT1A1 [1]; rat, pH 7.4, probe bilirubin (0.12-1.37 μM), Ki value, bilirubin substrate, extract concentration based on emodin content) [µM] |
| --- | --- | --- | --- | --- | --- | --- |
| Cc1cc(O)c2c(c1)C(C1c3cc(C)cc(O)c3C(=O)c3c(OC4OC(CO)C(O)C(O)C4O)cc(O)cc31)c1cc(O)cc(O)c1C2=O (stereo not drawn) [Polygonumnolide C3] | 12.9 | Non-Competitive inhibition |  |  |  |  |
| Cc1cc(O)c2c(c1)C(=O)c1cc(O)cc(O)c1C2=O [Emodin] | 10 | Competitive inhibition | 4.85 ± 0.528 | 5.4 ± 0.956 | 10 ± 0.611 |  |
| Cc1cc(O)c2c(c1)C(C1c3cc(C)cc(O)c3C(=O)c3c(O)cc(O)cc31)c1cc(O)cc(O)c1C2=O (stereo not drawn) [Cis-emodin dianthrones] | 0.863 |  |  |  |  |  |
| COc1cc(O)c2c(c1)C(=O)c1cc(C)cc(O)c1C2=O [Physcion] | 94.7 | Non-Competitive inhibition |  |  |  |  |
| Cc1cc(O)c2c(c1)C(C1c3cc(C)cc(O)c3C(=O)c3c(OC4OC(CO)C(O)C(O)C4O)cc(O)cc31)c1cc(O)cc(O)c1C2=O (stereo not drawn) [Polygonumnolide C4] | 77.4 | Un-Competitive inhibition |  |  |  |  |
| O=C1c2cc(O)cc(O)c2C(=O)c2c(O)cc(CO)cc21 [Citreorosein] | 18.6 | Mixed Type inhibition |  |  |  |  |
| Cc1cc(O)c2c(c1)C(C1c3cc(C)cc(O)c3C(=O)c3c(O)cc(O)cc31)c1cc(O)cc(O)c1C2=O (stereo not drawn) [Trans-emodin dianthrones] | 1.08 | Competitive inhibition |  |  |  |  |
| O=C(O)c1cc(O)c2c(c1)C(=O)c1cccc(O)c1C2=O [Rhein] | 127 | Mixed Type inhibition |  |  |  |  |
| Cc1cc(O)c2c(c1)C(C1c3cc(C)cc(O)c3C(=O)c3c(OC4OC(CO)C(O)C(O)C4O)cc(O)cc31)c1cc(O)cc(O)c1C2=O (stereo not drawn) [Polygonumnolide C2] | 4.29 | Non-Competitive inhibition |  |  |  | 4.22 |
